# Source: US4748122A, “2,5-diketo-D-gluconic acid reductase” (Shionogi & Co., Ltd., priority 1983, dated 1988)
# Assays:
# 25DKG-Rase [1] = biological target: T1, 25DKG-Rase (Corynebacterium sp., UniProt P15339); assay: Spectrophotometric enzymatic activity (decrease in absorption at 340 nm), purified enzyme solution of Example 1; assay type: biochemical, Corynebacterium sp. No. 20A-77 mutant (FERM-BP 108); conditions: for Enzymatic activity: per 1 ml purified enzyme solution
# T1 construct: The enzyme is an intracellular enzyme extracted from the cells of the 2KLG producing strain; made in house; host or cells: natural producer Corynebacterium sp; No. 20A-77 mutant FERM-BP 108, enzyme purified from sonicated cells; not recombinant
# T1 sequence (P15339 2-277 limits assumed): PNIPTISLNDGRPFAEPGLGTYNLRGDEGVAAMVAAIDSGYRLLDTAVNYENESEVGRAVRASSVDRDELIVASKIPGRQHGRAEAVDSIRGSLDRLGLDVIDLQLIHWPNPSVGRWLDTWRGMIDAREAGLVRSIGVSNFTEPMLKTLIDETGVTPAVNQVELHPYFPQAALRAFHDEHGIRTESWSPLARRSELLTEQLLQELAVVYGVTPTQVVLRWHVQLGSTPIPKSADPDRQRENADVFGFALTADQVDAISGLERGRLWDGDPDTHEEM
# [2] = system: 25DKG-Rase derived from Strain K-106; assay: Enzymatic activity of 25DKG-Rase obtained from K-106 (Example 2); assay type: biochemical, Corynebacterium sp. No. K-106 (ATCC 31,088); conditions: enzyme from K-106, coenzyme NADH
# 25DKG-Rase [3] = biological target: T1, 25DKG-Rase; assay type: biochemical, Corynebacterium sp. No. 20A-77 mutant (FERM-BP 108); conditions: 10 μl enzyme solution, 25 μmoles substrate, 15 μmoles NADPH, 30° C., 60 minutes; gas chromatography
# [4] = system: 25DKG-Rase derived from Strain K-106; assay: Substrate specificity by product formation, enzyme from K-106; assay type: biochemical, Corynebacterium sp. No. K-106 (ATCC 31,088)
# Procedure: (§1) The purified enzyme solution (10 μl) obtained above (3) was mixed with 25 μmoles of a substrate (Ca-25DKG or 5KF) and 3.0 ml of 0.01M TB (pH 7) containing 15 μmoles of NADPH and the mixture was allowed to react at 30° C. for 60 minutes. After the reaction, the reaction mixture was analyzed by paper chromatography (developing solvent; phenol:formic acid:water=75:4:25, chromogenic agent; AHF solution, prepared by dissolving 0.93 g of anilin and 1.66 g of phthalic acid in 100 ml of water-saturated n-butanol and heating at 105° C. for 2 minutes) and by gas chromatography (column; SE-52, carrier gas: Helium, sample; trimethylsilylated derivative). […] In Table 1, the results of quantitative determination of the products by gas chromatography are shown.
# (§2) The measurements of the physico-chemical properties were conducted in a manner as described in Example 1-(4) (5).
# [5] = system: 25DKG-Rase derived from Strain T-13; assay: Substrate specificity by product formation, enzyme from T-13; assay type: biochemical, Corynebacterium sp. No. T-13 (ATCC 31,089)
# Procedure: as §1, §2
# [6] = system: 25DKG-Rase derived from Strain T-13; assay: Enzymatic activity of 25DKG-Rase obtained from T-13 (Example 2); assay type: biochemical, Corynebacterium sp. No. T-13 (ATCC 31,089); conditions: enzyme from T-13, coenzyme NADH
# [7] = system: 25DKG-Rase derived from Strain T-13; assay: as above; assay type: biochemical, Corynebacterium sp. No. T-13 (ATCC 31,089); conditions: for Enzymatic activity (relative activity): 100 = activity at pH 7, 30° C.
# Procedure: (§3) Two point nine (2.9) ml of 0.1M TB (pH 7) containing 0.3 μmoles of NADPH was placed in a quartz cubette having 1 cm optical length difference and added 1-5 μl of the enzyme solution obtained above (3) thereto. Then, to the mixture, each 0.1 ml of the various substrate solutions (0.1M) were added while being kept at 30° C. Reactivities of the enzyme on the respective substrates were determined, by means of successive measurement of the decrease in absorption at 340 nm, on the basis of the decrease for 1 minute.
# as §2
# (§4) Enzymatic activities of 25DKG-Rases obtained from K-106 and T-13 were measured at varying pH from 4 to 9 (substrate: Ca-25DKG, reaction temperature: 30° C.).
# (§5) The enzymatic activities of 25DKG-Rases obtained from K-106 and T-13 were measured at varying temperature (pH 7.0, substrate: Ca-25DKG).
# [8] = system: 25DKG-Rase derived from Strain K-106; assay: Enzymatic activity of 25DKG-Rase obtained from K-106 (Example 2); assay type: biochemical, Corynebacterium sp. No. K-106 (ATCC 31,088); conditions: for Enzymatic activity (relative activity): 100 = activity at pH 7, 30° C.
# Procedure: as §3, §2, §4, §5
smiles,measurement,setting,value
O=C(O)C(=O)[C@@H](O)[C@H](O)C(=O)CO [Ca-25DKG],Enzymatic activity,"25DKG-Rase [1]; 15 °C., pH 7",14 unit/ml
same,Enzymatic activity,"25DKG-Rase [1]; 25 °C., pH 7",29 unit/ml
same,Enzymatic activity,"25DKG-Rase [1]; 27.5 °C., pH 7",44 unit/ml
same,Enzymatic activity,"25DKG-Rase [1]; 30 °C., pH 7",54 unit/ml
same,Enzymatic activity,"25DKG-Rase [1]; 32.5 °C., pH 7",59 unit/ml
same,Enzymatic activity,"25DKG-Rase [1]; 35 °C., pH 7",64 unit/ml
same,Enzymatic activity,"25DKG-Rase [1]; 40 °C., pH 7",67 unit/ml
same,Enzymatic activity,"25DKG-Rase [1]; 45 °C., pH 7",44 unit/ml
same,Enzymatic activity,"25DKG-Rase [1]; 50 °C., pH 7",10 unit/ml
same,Activity of the purified enzyme solution (1 ml),"25DKG-Rase [1]; NADPH, 0.1M TB pH 7, 30° C.",54 units
same,Enzymatic activity,"25DKG-Rase [1]; pH 4.0, 3,3-dimethylglutaric acid buffer",1 unit/ml
same,Enzymatic activity,"25DKG-Rase [1]; pH 5.0, 3,3-dimethylglutaric acid buffer",22 unit/ml
same,Enzymatic activity,"25DKG-Rase [1]; pH 6.0, Good (PIPES) buffer",59 unit/ml
same,Enzymatic activity,"25DKG-Rase [1]; pH 6.5, Good (PIPES) buffer",57 unit/ml
same,Enzymatic activity,"25DKG-Rase [1]; pH 7.0, Good (PIPES) buffer",53 unit/ml
same,Enzymatic activity,"25DKG-Rase [1]; pH 7.0, Tris buffer",54 unit/ml
same,Enzymatic activity,"25DKG-Rase [1]; pH 7.5, Tris buffer",44 unit/ml
same,Enzymatic activity,"25DKG-Rase [1]; pH 8.0, Tris buffer",32 unit/ml
same,Enzymatic activity,"25DKG-Rase [1]; pH 8.5, Tris buffer",11 unit/ml
same,Enzymatic activity,"25DKG-Rase [1]; pH 9.0, Tris buffer",7 unit/ml
same,enzymatic activity using NADH as the coenzyme,[2],≤ 0.1 unit/ml
same,Concentration of the product,25DKG-Rase [3],845 µg/mL
same,product formed (substrate specificity),[4],produced only Ca-2KLG
same,product formed (substrate specificity),[5],produced only Ca-2KLG
same,enzymatic activity using NADH as the coenzyme,[6],≤ 0.1 unit/ml
same,Enzymatic activity (relative activity),"[7]; T-13, 22 °C., pH 7.0",64
same,Enzymatic activity (relative activity),"[7]; T-13, 25 °C., pH 7.0",79
same,Enzymatic activity (relative activity),"[7]; T-13, 28 °C., pH 7.0",92
same,Enzymatic activity (relative activity),"[7]; T-13, 30 °C., pH 7.0",100
same,Enzymatic activity (relative activity),"[7]; T-13, 35 °C., pH 7.0",115
same,Enzymatic activity (relative activity),"[7]; T-13, 40 °C., pH 7.0",133
same,Enzymatic activity (relative activity),"[7]; T-13, 45 °C., pH 7.0",128
same,Enzymatic activity (relative activity),"[7]; T-13, 50 °C., pH 7.0",92
same,Enzymatic activity (relative activity),"[7]; T-13, pH 4.0, 30° C.",1
same,Enzymatic activity (relative activity),"[7]; T-13, pH 5.0, 30° C.",65
same,Enzymatic activity (relative activity),"[7]; T-13, pH 6.0, 30° C.",104
same,Enzymatic activity (relative activity),"[7]; T-13, pH 7.0, 30° C.",100
same,Enzymatic activity (relative activity),"[7]; T-13, pH 8.0, 30° C.",64
same,Enzymatic activity (relative activity),"[7]; T-13, pH 9.0, 30° C.",19
same,Enzymatic activity per protein,"[7]; enzyme from Strain T-13, NADPH",89 units/mg protein
same,Enzymatic activity,"[7]; enzyme from Strain T-13, purified enzyme solution, NADPH",15.1 units/ml
same,Enzymatic activity (relative activity),"[8]; K-106, 22 °C., pH 7.0",46
same,Enzymatic activity (relative activity),"[8]; K-106, 25 °C., pH 7.0",69
same,Enzymatic activity (relative activity),"[8]; K-106, 28 °C., pH 7.0",86
same,Enzymatic activity (relative activity),"[8]; K-106, 30 °C., pH 7.0",100
same,Enzymatic activity (relative activity),"[8]; K-106, 35 °C., pH 7.0",115
same,Enzymatic activity (relative activity),"[8]; K-106, 40 °C., pH 7.0",119
same,Enzymatic activity (relative activity),"[8]; K-106, 45 °C., pH 7.0",93
same,Enzymatic activity (relative activity),"[8]; K-106, 50 °C., pH 7.0",44
same,Enzymatic activity (relative activity),"[8]; K-106, pH 4.0, 30° C.",1
same,Enzymatic activity (relative activity),"[8]; K-106, pH 5.0, 30° C.",48
same,Enzymatic activity (relative activity),"[8]; K-106, pH 6.0, 30° C.",103
same,Enzymatic activity (relative activity),"[8]; K-106, pH 7.0, 30° C.",100
same,Enzymatic activity (relative activity),"[8]; K-106, pH 8.0, 30° C.",70
same,Enzymatic activity (relative activity),"[8]; K-106, pH 9.0, 30° C.",6
same,Enzymatic activity per protein,"[8]; enzyme from Strain K-106, NADPH",95 units/mg protein
same,Enzymatic activity,"[8]; enzyme from Strain K-106, purified enzyme solution, NADPH",23.8 units/ml
